How the values were obtained:
C Reactive Protein (CRP) = assay: LPS-induced acute lung injury, BAL C Reactive Protein ELISA; type: in vivo, rat; settings: rats
Protocol: (§1) The study was designed to evaluate the direct impact of an Aloe-based composition (UP360) made in the Example 9 in alleviating LPS-induced acute lung injury administered orally at 500 mg/kg and 250 mg/kg. […] In this study, we treated rats with the test materials orally for 7 days before model induction with LPS. On the 8th day, an hour after oral treatment, LPS was instilled intratracheally (i.t.) at 10 mg/kg dissolved in 0.1 mL/100 g PBS to each rat. The normal control rats received the same volume i.t. PBS only.
(§2) We sacrificed surviving animals 24 hours after intratracheal LPS administration to the rats. At necropsy, collected bronchoalveolar lavage (BAL) by intratracheal injection of 1.5 mL PBS into the right lobe followed by gentle aspiration at least 3 times. Pooled recovered fluid, centrifuged at 1500 rpm for 10 min at 4 ° C., and was used to measure cytokines (e.g. IL-6) and pulmonary protein levels. […]
The presence of C Reactive Protein (CRP) in rat BAL diluted 1:1,000 was measured using the C Reactive Protein (PTX1) Rat ELISA kit from Abcam (product #: ab108827) as follows: 1:1,000 diluted BAL was added to a microplate coated with CRP antibody. […] After developing for 10 minutes at room temperature, a stop solution was added, and the absorbance was read at 450 nm. The concentration of CRP was calculated based on the absorbance readings of a CRP standard curve.

IL-6 = assay: LPS-induced acute lung injury, BAL IL-6 ELISA; type: in vivo, rat; settings: rats
Protocol: as §1, §2
The presence of IL-6 in undiluted rat broncho-alveolar lavage (BAL) from Example 23 was measured using the Rat IL-6 Quantikine ELISA kit from R&D Systems (product #: R6000B) as follows: undiluted BAL was added to a microplate coated with IL-6 antibody. […] After developing for 30 minutes at room temperature, a stop solution was added, and the absorbance was read at 450 nm. The concentration of IL-6 was calculated based on the absorbance readings of an IL-6 standard curve.

[1] = LPS 10 mg/kg i.t., 24 hours post, oral, 500 mg/kg

CCCC(=O)[O-].[Na+] [Sodium Butyrate]
BAL CRP level, Mean ± SD (C Reactive Protein (CRP); [1]): 20093.5 ± 8826.1 pg/mL
reduction of BAL CRP vs vehicle (C Reactive Protein (CRP); LPS i.t., 500 mg/kg oral): minimal changes
BAL IL-6 level, Mean ± SD (IL-6; [1]): 1933.30 ± 1744.23 pg/mL
reduction in the level of BAL IL-6 vs vehicle (IL-6; LPS i.t., 500 mg/kg oral): 37.7%
